Literature values in patent US9199980B2, “Compounds” (CHIESI FARMACEUTICI S.p.A., priority 2012, dated 2015).

Key:
[1] = tested on: smoking model of COPD in mice
[2] = patients with severe disease, frequent exacerbations and mucus hypersecretion

SMILES: O=C(Nc1c(Cl)cncc1Cl)c1ccc(OC(F)F)c(OCC2CC2)c1 [roflumilast]
- reduction of the numbers of neutrophils in sputum (COPD patients; COPD patients, oral, given over 4 weeks): 36%
- improvement of FEV 1 (COPD patients; [2]): approximately 50 ml
- reduction of exacerbation (COPD patients; [2]): about 15%
- effect on lung inflammation and emphysema [1]: inhibits lung inflammation and emphysema
